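1) Cells in 96-well plates. 2) Compound, 48 h, 5 concentrations. 3) Linear interpolation between surrounding doses. 4) Unreached endpoint = highest concentration. The concentration for 50% growth inhibition is given as GI50.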 Calls of active or inactive are those of the source. No stated cut-off is given here; in the data, active = GI50 up to about 1.1 µM and inactive = higher.
Legend:
Assay in all cases: DTP human tumour cell line panel, 48 h
CAKI-1 = test system: CAKI-1
COLO 205 = test system: COLO 205
HCC 2998 = test system: HCC 2998
Hs-578T = test system: Hs-578T
IGROV-1 = test system: IGROV-1
K562 = test system: K562
MCF7 = test system: MCF7
MDA-MB-435 = test system: MDA-MB-435
MDA-N = test system: MDA-N
MOLT-4 = test system: MOLT-4
NCI-H23 = test system: NCI-H23
OVCAR-5 = test system: OVCAR-5
OVCAR-8 = test system: OVCAR-8
SF-295 = test system: SF-295
SK-OV-3 = test system: SK-OV-3
SNB-19 = test system: SNB-19
U-251 = test system: U-251
SW-620 = test system: SW-620
BT-549 = test system: BT-549

Structure (SMILES)	GI50 (CAKI-1)	GI50 (COLO 205)	GI50 (HCC 2998)	GI50 (Hs-578T)	GI50 (IGROV-1)	GI50 (K562)	GI50 (MCF7)	GI50 (MDA-MB-435)	GI50 (MDA-N)	GI50 (MOLT-4)	GI50 (NCI-H23)	GI50 (OVCAR-5)	GI50 (OVCAR-8)	GI50 (SF-295)	GI50 (SK-OV-3)	GI50 (SNB-19)	GI50 (U-251)	GI50 (SW-620)	GI50 (BT-549)
CCN(CC)CCC1CCCCN1CC(=O)N1c2ccccc2NC(=O)CC1C (centres undefined)	> 100 µM (inactive)	> 100 µM (inactive)	> 100 µM (inactive)	> 100 µM (inactive)	> 100 µM (inactive)	> 100 µM (inactive)	> 100 µM (inactive)	> 100 µM (inactive)	> 100 µM (inactive)	> 100 µM (inactive)	> 100 µM (inactive)	> 100 µM (inactive)	> 100 µM (inactive)	> 100 µM (inactive)	> 100 µM (inactive)	> 100 µM (inactive)	> 100 µM (inactive)	–	–
CCOC(=O)c1sc2[n+](c1C)C(=O)/C(=C/c1ccccc1Cl)S2	0.453 µM (active)	3.13 µM (inactive)	1.7 µM (inactive)	0.822 µM (active)	1.84 µM (inactive)	0.505 µM (active)	3.11 µM (inactive)	0.281 µM (active)	0.259 µM (active)	3.33 µM (inactive)	1.63 µM (inactive)	14.7 µM (inactive)	1.01 µM (active)	0.324 µM (active)	1.99 µM (inactive)	0.579 µM (active)	0.583 µM (active)	0.883 µM (active)	–
CC(=O)OC1CC2C(=O)C(=O)C1(C)C2(C)C (centres undefined)	–	> 100 µM (inactive)	> 100 µM (inactive)	–	> 100 µM (inactive)	> 100 µM (inactive)	> 100 µM (inactive)	> 100 µM (inactive)	> 100 µM (inactive)	> 100 µM (inactive)	> 100 µM (inactive)	> 100 µM (inactive)	> 100 µM (inactive)	> 100 µM (inactive)	> 100 µM (inactive)	> 100 µM (inactive)	> 100 µM (inactive)	> 100 µM (inactive)	> 100 µM (inactive)
O=C(/C=C(\O)C(=O)O)/C=C(\O)c1ccccc1	> 4.65 µM (inactive)	> 4.65 µM (inactive)	–	–	> 4.65 µM (inactive)	> 4.65 µM (inactive)	–	–	–	> 100 µM (inactive)	–	–	> 100 µM (inactive)	> 4.65 µM (inactive)	> 4.65 µM (inactive)	> 4.65 µM (inactive)	> 4.65 µM (inactive)	> 4.65 µM (inactive)	–
O=[N+]([O-])c1ccc2nc3n(c2c1)C(c1c(F)cccc1F)SC3 (centres undefined)	–	–	–	> 100 µM (inactive)	> 100 µM (inactive)	> 10 µM (inactive)	> 100 µM (inactive)	–	> 100 µM (inactive)	> 100 µM (inactive)	> 100 µM (inactive)	> 100 µM (inactive)	> 10 µM (inactive)	89.5 µM (inactive)	> 100 µM (inactive)	> 100 µM (inactive)	> 100 µM (inactive)	> 100 µM (inactive)	–
O=C1CCCCCC1CC(Sc1ccccc1)Sc1ccccc1 (centres undefined)	> 100 µM (inactive)	61.4 µM (inactive)	> 100 µM (inactive)	96.2 µM (inactive)	> 100 µM (inactive)	46.7 µM (inactive)	72.3 µM (inactive)	> 100 µM (inactive)	> 100 µM (inactive)	8.69 µM (inactive)	75.3 µM (inactive)	> 100 µM (inactive)	> 100 µM (inactive)	> 100 µM (inactive)	> 100 µM (inactive)	> 100 µM (inactive)	> 100 µM (inactive)	98.2 µM (inactive)	–
CCOC(=O)NC(=O)c1cn(CCCOC(=O)CCCCCCCCCCC(=O)OCCCn2cc(C(=O)NC(=O)OCC)c(=O)[nH]c2=O)c(=O)[nH]c1=O	–	> 100 µM (inactive)	> 100 µM (inactive)	–	> 100 µM (inactive)	> 100 µM (inactive)	–	–	–	> 100 µM (inactive)	> 100 µM (inactive)	> 100 µM (inactive)	> 100 µM (inactive)	> 100 µM (inactive)	42.7 µM (inactive)	49 µM (inactive)	> 100 µM (inactive)	> 100 µM (inactive)	–
COc1ccc(CN=C(N)N)c2ccccc12	20.7 µM (inactive)	15.8 µM (inactive)	–	24.1 µM (inactive)	–	–	36.7 µM (inactive)	–	38.5 µM (inactive)	48.3 µM (inactive)	24.3 µM (inactive)	22.8 µM (inactive)	38.8 µM (inactive)	2.7 µM (inactive)	34.8 µM (inactive)	18.4 µM (inactive)	16.4 µM (inactive)	41.2 µM (inactive)	–
CC(=O)CC(=O)Nn1c(-c2cccs2)nc2ccc(I)cc2c1=O	> 47.3 µM (inactive)	> 51.4 µM (inactive)	> 39.8 µM (inactive)	–	> 46.7 µM (inactive)	> 65.9 µM (inactive)	> 54.2 µM (inactive)	> 60.7 µM (inactive)	> 100 µM (inactive)	> 70.1 µM (inactive)	> 49 µM (inactive)	> 55.1 µM (inactive)	> 57.3 µM (inactive)	> 54.7 µM (inactive)	> 66.7 µM (inactive)	> 68.2 µM (inactive)	> 56 µM (inactive)	> 52.7 µM (inactive)	> 35.9 µM (inactive)
CCN(CC)CCC1CCCCN1CC(=O)N1c2ccccc2NC(=O)c2ccccc21 (centres undefined)	> 100 µM (inactive)	> 100 µM (inactive)	> 100 µM (inactive)	> 100 µM (inactive)	> 100 µM (inactive)	> 100 µM (inactive)	> 100 µM (inactive)	> 100 µM (inactive)	> 100 µM (inactive)	> 100 µM (inactive)	> 100 µM (inactive)	> 100 µM (inactive)	> 100 µM (inactive)	> 100 µM (inactive)	> 100 µM (inactive)	> 100 µM (inactive)	> 100 µM (inactive)	–	–
O=c1[nH]c(=O)n(COC(CO)CO)cc1-c1ccccc1	> 100 µM (inactive)	> 100 µM (inactive)	> 100 µM (inactive)	> 100 µM (inactive)	> 100 µM (inactive)	> 100 µM (inactive)	> 100 µM (inactive)	> 100 µM (inactive)	> 100 µM (inactive)	> 100 µM (inactive)	> 100 µM (inactive)	> 100 µM (inactive)	> 100 µM (inactive)	> 100 µM (inactive)	> 100 µM (inactive)	> 100 µM (inactive)	> 100 µM (inactive)	> 100 µM (inactive)	–
O=C(NCc1cccc2ccccc12)N/N=C\c1ccc(Cl)cc1	43.2 µM (inactive)	> 100 µM (inactive)	57.7 µM (inactive)	–	> 100 µM (inactive)	> 100 µM (inactive)	43.3 µM (inactive)	28.1 µM (inactive)	9.82 µM (inactive)	> 100 µM (inactive)	> 100 µM (inactive)	> 100 µM (inactive)	> 100 µM (inactive)	53.5 µM (inactive)	–	> 100 µM (inactive)	> 100 µM (inactive)	88.3 µM (inactive)	> 100 µM (inactive)
COC(=O)CCC(=O)C(C#N)c1ccc(Cl)cc1Cl (centres undefined)	> 100 µM (inactive)	–	–	–	> 100 µM (inactive)	> 100 µM (inactive)	–	–	–	> 100 µM (inactive)	> 100 µM (inactive)	–	–	> 100 µM (inactive)	> 100 µM (inactive)	> 100 µM (inactive)	> 100 µM (inactive)	> 100 µM (inactive)	–
Nc1nnnn1NC(=O)NCCCl	> 10 µM (inactive)	> 10 µM (inactive)	> 10 µM (inactive)	> 10 µM (inactive)	> 10 µM (inactive)	> 10 µM (inactive)	> 10 µM (inactive)	> 10 µM (inactive)	> 10 µM (inactive)	> 10 µM (inactive)	> 10 µM (inactive)	–	> 10 µM (inactive)	> 10 µM (inactive)	> 10 µM (inactive)	> 10 µM (inactive)	> 10 µM (inactive)	> 10 µM (inactive)	–
C1CSCCSCCS1	–	> 100 µM (inactive)	> 100 µM (inactive)	–	> 100 µM (inactive)	> 100 µM (inactive)	> 100 µM (inactive)	> 100 µM (inactive)	> 100 µM (inactive)	> 100 µM (inactive)	> 100 µM (inactive)	> 100 µM (inactive)	> 100 µM (inactive)	> 100 µM (inactive)	> 100 µM (inactive)	> 100 µM (inactive)	> 100 µM (inactive)	> 100 µM (inactive)	> 100 µM (inactive)
CCCc1cc2c(cc1O)CC[C@@H]1[C@@H]2CC[C@]2(C)[C@@H](O)CC[C@@H]12	11.3 µM (inactive)	18.2 µM (inactive)	16.5 µM (inactive)	10.1 µM (inactive)	15.2 µM (inactive)	3.17 µM (inactive)	–	–	2.29 µM (inactive)	5.6 µM (inactive)	14.1 µM (inactive)	19.5 µM (inactive)	14.4 µM (inactive)	5.82 µM (inactive)	14.6 µM (inactive)	12.9 µM (inactive)	6.62 µM (inactive)	3.95 µM (inactive)	–
O=C(CC(O)(C(F)(F)Cl)C(F)(F)Cl)CC(O)(C(F)(F)Cl)C(F)(F)Cl	2 µM (inactive)	1.63 µM (inactive)	1.74 µM (inactive)	1.92 µM (inactive)	2.17 µM (inactive)	0.843 µM (active)	2.14 µM (inactive)	1.69 µM (inactive)	3.49 µM (inactive)	2.14 µM (inactive)	0.975 µM (active)	–	2.58 µM (inactive)	2.36 µM (inactive)	1.87 µM (inactive)	1.71 µM (inactive)	1.65 µM (inactive)	3.36 µM (inactive)	–
